The text below walks through data of PMC12126525, “Mechanism of ATP hydrolysis in the Hsp70 BiP nucleotide-binding domain” (Nature Communications, 2025).

Each structure is given as a SMILES string. Several values for one entry are separate records, joined by “and”; a condition that tells them apart may be missing. Equal values may be shown once.

The test deals with BiP NBD (Homo sapiens, UniProt P11021). Put plainly: In-cyclo NMR with ATP regeneration (E1) and phosphate removal (E2): hydrolysis rate, state populations, occupancy times. The format is biochemical. Details: His6 (N, cleaved yes); made in house; host or cells: E. coli BL21-(DE3)-Lemo, pET28a vector. The following applies: for khydr: Fig 3 f source data: replicates [1]-[3] and average; for cycle timing: Fig 4f source data: replicates [1]-[3] and average. An excerpt:
In order to create a stable steady-state condition, we implemented two enzymatic systems inside the NMR tube to convert ADP into ATP and to remove the free phosphate, respectively. The first enzyme (E1) is pyruvate kinase, at catalytic amounts, which combines phosphoenol pyruvate (PEP) and ADP to form ATP (Fig. 3a). […] The second enzyme (E2) is sucrose phosphorylase, at catalytic amounts, which catalyzes the conversion of sucrose and phosphate into α-D-glucose-1-phosphate and D-fructose. […] To distinguish this experiment from equilibrium experiments, and highlight the unique setup to control ATP, ADP and Pi levels simultaneously, we refer to this setup as the “in-cyclo” NMR experiment.
We then set out to determine the kinetic parameters of the functional cycle. The NMR signal intensities of each of the three detected states are proportional to their population in the steady state. We integrated 51 non-overlapping independent methyl groups to obtain the population ratio pDtotal/pT, including 7 non-overlapping independent methyl groups to obtain the subpopulation ratio pD·Pi/pD.
The macroscopic hydrolysis rate khydr is experimentally determined from monitoring the pyruvate production. From there, the reaction flux f of the functional cycle results as19 f=khydrNBD0 The inverse of the hydrolysis rate is the average length of the functional cycle T.20 T=khydr−1 The flux is maintained along the cycle, resulting in the equations21 f=kcatNBD^ATP 22 f=koff4+koff5⋅NBD^ADP⋅Pi 23 f=koff2NBD^ADP+koff3NBD^Pi 24 f=kon1NBD^apoATP−koff1NBD^ATP 25 koff2NBD^ADP=koff4NBD^ADP⋅Pi
All in-cyclo NMR experiments were recorded with BiP NBD samples [U-^2H, ^15N, ^12C], Met-[^13CH3]^ε, Val-[^13CH3/^12C^2H3]^cγ1/cγ2, Ile-[^13CH3]^δ1 in NMR buffer (25 mM HEPES, pH 7.5, 150 mM KCl and 10 mM MgCl2) at a concentration of BiP NBD 100 μM. The in-cyclo ATP regeneration system was composed of 5 units of pyruvate kinase (E1) from rabbit muscle ( ≈ 200 nM; Sigma-Aldrich) and the concentration of phosphoenolpyruvate (PEP- Sigma-Aldrich) was adjusted to maintain the system active for at least four hours ([PEP] = 10–100 mM). The in-cyclo phosphate removal system was composed of 5 units of recombinant sucrose phosphorylase (E2) ( ≈ 500 nM; Sigma-Aldrich) and the concentration of sucrose (Sigma-Aldrich) was adjusted to maintain the system active for at least four hours ([Sucrose] = 10–100 mM). This experimental setup was modified as described in the text by selectively including E1 and/or E2 depending on the purpose of the experiments. All the experiments were recorded at minimum as experimental triplicates.
The in-cyclo experiment was initiated by the addition of 5 mM ATP (Sigma-Aldrich) and allowed to equilibrate at a temperature of 37 °C for 5 min in the NMR spectrometer. After the equilibration time 2D [^13C,^1H]-HMQC spectra were recorded in interleaved mode with 1D ^1H NMR spectra. […] The same setup was used for the alternative experiments by including or excluding E1 and/or E2.

Chain of BiP NBD (P11021 19-406): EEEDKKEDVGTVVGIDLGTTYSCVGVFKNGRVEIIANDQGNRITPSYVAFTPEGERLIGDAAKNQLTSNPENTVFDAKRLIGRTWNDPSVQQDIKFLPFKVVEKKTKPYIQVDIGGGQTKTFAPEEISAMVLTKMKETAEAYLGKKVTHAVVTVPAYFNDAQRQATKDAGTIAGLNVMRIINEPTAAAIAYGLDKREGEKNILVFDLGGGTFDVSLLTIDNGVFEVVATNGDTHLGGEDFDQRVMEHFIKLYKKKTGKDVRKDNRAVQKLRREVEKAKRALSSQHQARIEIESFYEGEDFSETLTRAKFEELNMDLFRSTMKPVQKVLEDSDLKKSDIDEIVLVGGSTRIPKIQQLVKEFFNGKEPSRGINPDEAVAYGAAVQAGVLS

As for `Nc1ncnc2c1ncn2[C@@H]1O[C@H](COP(=O)(O)OP(=O)(O)OP(=O)(O)O)[C@@H](O)[C@H]1O` [ATP], the khydr is 1.417 min⁻¹ and 1.507 min⁻¹ and 1.488 min⁻¹; the cycle timing is 42.34 s and 39.82 s and 40.31 s. This compound returned an ATP consumption (100 μM BiP NBD, 5 mM ATP, 37 °C) of 0.15 ± 0.01 mM/min. For the setting “mean”, this compound came in with a khydr of 1.471 min⁻¹ and a cycle timing of 41 s. For the same compound, the “catalytic ATP hydrolysis rate kcat = tT^−1” value (from occupancy time of the T state) is 0.067 s⁻¹. For the same compound, the “average length of the functional cycle T = khydr^−1” value (in-cyclo, no calcium) amounted to 41 ± 2 s. In addition, where the note is “in-cyclo, no calcium, 37 °C”, the “macroscopic hydrolysis rate khydr” value amounted to 1.47 ± 0.05 min⁻¹.
